Measured values taken from US20220213170A1, “PEPTIDES” (Hubro Therapeutics AS, priority 2019, published 2022).
Where no end group is shown, it is not given here.

Legend:
[1] = test system: T cells (PBMC) from healthy donors; assay: T-cell proliferation (3H-thymidine uptake, stimulation index) after in vitro stimulation of PBMC with fsp2+fsp4 cocktail; assay type: cell-based, human; settings: for Immune response of Donor 3: Donor 3, stimulation with fsp2 and fsp4 mixture, FIG. 11; for Immunogenicity relative to fsp3 and fsp4: FIGS. 10 and 11, peptides with wild-type TGFβR2 amino acids vs without; for Immunogenicity (T cell proliferation, stimulation index): first and second round of stimulation with fsp2+fsp4, 10 μM test peptide, FIGS. 10-12
Method: Fresh buffy coats from four healthy donors were obtained from a blood bank.
Peripheral blood mononuclear cells (PBMC) isolated from fresh buffy coats from four healthy donors were counted and suspended in DC medium to 15*10^6 cells/ml, and subsequently diluted with DC-medium to 4*10^6 cells/ml (Table 6).
Four 24-well plates were used for each donor, with 4*10^6 cells per well (each well has a volume of 1 ml).
Peptide cocktail: Solution of peptides fsp2+fsp4, containing 10 μM of each peptide. 40 μl peptide solution was added to each well.
The plates were incubated in a cell incubator for 14 days (37° C., 5% CO2). IL-2 and IL-7 were added on day 3. The cells were inspected daily.
Test peptides: fsp2+fsp4 (SEQ ID NOs: 5 and 7), fsp1 (SEQ ID NO: 4), fsp2 (SEQ ID NO: 5), fsp3 (SEQ ID NO: 6), fsp4 (SEQ ID NO: 7), fsp5 (SEQ ID NO: 3).
Cells and reagents were added to plate wells (in triplicate) as described in Tables 7 and 8 below. The total volume added to each well was 0.20 ml. • T cells (PBMC): 50 000 cells/well (0.25*10^6 cells/ml) • APC: Irradiated (30Gy, 8 minutes) autologous feeder cells: 50 000 cells/well • Peptide (fspx): […] peptide/well (each peptide), concentration: 10 μM peptide. (fsp was dissolved in DMSO before dilution to correct concentration)
The plates were incubated in a cell incubator for 48 hours (37° C., 5% CO2).
After incubation for 48 hours, 20 μl 3H-tThymidine solution (5 μCi/ml) was added to each well and the plates were incubated for approximately 17 hours (37° C., 5% CO2).
After 17 hours the cells were harvested (Unifilters) and dried on the filters at 45° C. until completely dry. After covering the bottom of the Unifilters with adhesive covers (delivered with the Unifilters) 25 μl micro scintillation liquid was added to each well, the plate was covered with TopSeal and 3H-Thymidine uptake was measured as counts per minute (CPM) using a microplate scintillation counter.
The T cell proliferation results after the first round of in vitro stimulation with the cocktail of fsp2 and fsp4 peptides are presented as stimulation index (SI) in FIG. 10. SI=mean CPM (triplicates) of (T cells+APC+test peptide(s)) divided by mean CPM (triplicates) of (T cells+APC). SI≥2 is a clear signal of immunogenicity.
PBMCs harvested after the first in vitro stimulation were re-stimulated in vitro according to the protocol set out above, with 2×10^6 cells per well. T-cell proliferation was tested according to the protocol set out above.
The T cell proliferation results after a second round of in vitro stimulation with the cocktail of fsp2 and fsp4 peptides are presented as stimulation index (SI) in FIG. 11.

[2] = test system: T-cells from PMBCs from four healthy donors; assay: T-cell proliferation (stimulation index) after induction of PBMC with fsp2, fsp8 and fsp9 mixture; assay type: cell-based, human; settings: for Immunogenicity (T-cell proliferation, stimulation index): first round of stimulation, T-cells induced with fsp2+fsp8+fsp9, FIG. 13
Method: The same protocol as that set out in Example 7 was used to test the immunogenicity of fsp6 and fsp7 (SEQ ID NO: 26 and SEQ ID NO: 27, respectively), except for the peptide mixture used to induce T-cells from PMBCs from fresh buffy coats from four healthy donors. The peptide mixture used in this Example to induce T-cells from PMBCs was made up of fsp2 (SEQ ID NO: 5; 10 μM), fsp8 (SEQ ID NO: 31; 10 μM) and fsp9 (SEQ ID NO: 32; 10 μM). Fsp8 (SEQ ID NO: 31; […]) is a peptide of ASTE1 having a −1a frameshift mutation, and fsp9 (SEQ ID NO: 32; […]) is a peptide of TAF1β having a −1a frameshift mutation.
At day 14 after induction, a T-cell proliferation assay was carried out as in Example 7, using fsp2 (SEQ ID NO: 5), fsp6 (SEQ ID NO: 26) and fsp7 (SEQ ID NO: 27) as test peptides. As fsp8 and fsp9 have very different amino acid sequences from fsp2, only fsp2 would be able to induce T-cells which are capable of recognising and being stimulated by fsp2, fsp6 and fsp7. […] Two further rounds of T-cell stimulation were also carried out, with a T-cell proliferation assay being carried out 14 days after each stimulation.
The T-cell proliferation results after the first round of in vitro stimulation are presented as stimulation index (SI) in FIG. 13. […] It is also expected, in view of the results shown in FIGS. 11 and 12, that a peptide having the sequence of fsp6 (SEQ ID NO: 26) but having an amino acid substitution corresponding to that in fsp2, and particularly a C-to-G amino acid substitution as in fsp2, is also immunogenic and is useful as a vaccine or treatment against cancer. […] Thus, it is expected that fsp6a (SEQ ID NO: 28), which is identical to fsp6 (SEQ ID NO: 26) except for the same C-to-G amino acid substitution as fsp2 (SEQ ID NO: 5), will also be immunogenic.

[3] = test system: tumour infiltrating Th cells in MSI+ tumours; settings: cited from earlier work
[4] = test system: colorectal cancer cell line HCT116; settings: cell line carries the corresponding frameshift mutation; cited from earlier work
[5] = test system: CTLs (HLA-A2.1 restricted); settings: cited from earlier work
CTL = settings: cited from earlier work
T-cells = settings: after four rounds of stimulation of the T-cells; cited from earlier work
[6] = Peptide stability (purity by UPLC after lyophilisation or storage); assay type: physicochemical; settings: purified peptide, dropped from around 90% before lyophilisation
Method: A batch of fsp5 (SEQ ID NO: 3) was prepared by solid phase peptide synthesis (SPPS) by using FMOC chemistry and Prelude synthesizer (Gyros Protein Technologies Inc., USA). The crude peptide was analysed by UPLC and MS. […] UPLC system: Column; Acquity UPLC BEH C18 […], […], detection; PDA 210-500 nm, solvent A); 0.1% TFA in water, solvent B; 0.1% TFA in MeCN, gradient: 20-70% B (2-10 minutes, linear).
When the purity of the small amount of purified fsp5 (SEQ ID NO: 3) was reassessed by UPLC after lyophilisation, the purity had dropped from around 90% to below 50% as shown in FIG. 4.

Peptide solubility = assay type: physicochemical
Method: The peptide was difficult to dissolve and it was attempted to dissolve the crude fsp5 (SEQ ID NO: 3) (˜150 mg) in approximately 4 ml 50% MeCN in water under gentle heating.
Another batch of fsp5 (SEQ ID NO: 3) was prepared, dissolved in neat DMSO under gentle heating and purified by preparative HPLC. Again, only very small amounts of purified fsp5 (SEQ ID NO: 3) were obtained.

[7] = patients recognising the peptide

KGIMKEKKSLVRLSSCVPVALMSA (not fully specified) [fsp2]
Immune response of Donor 3 [1]: showed an immune response | Immunogenicity relative to fsp3 and fsp4 [1]: more immunogenic | Immunogenicity (T cell proliferation, stimulation index) [1]: immunogenic | Immunogenicity relative to fsp7 ([2]; FIG. 13): much more immunogenic

SSGVPVALMSAMTTSSSQKN (also: 2TFA salt) [fsp4]
Immunogenicity (T cell proliferation, stimulation index) [1]: immunogenic

fsp6: Peptide of SEQ ID NO: 26; same sequence as fsp2 but truncated at the C-terminus and without C-to-G substitution (KCIMKEKKSLVRLSSCV; listed as Homo sapiens)
Immunogenicity relative to fsp2 ([2]; FIG. 13): less immunogenic | Immunogenicity relative to fsp7 ([2]; FIG. 13): much more immunogenic | Immunogenicity (T-cell proliferation, stimulation index) [2]: immunogenic

fsp7: Peptide of SEQ ID NO: 27; same amino acid sequence as fsp2 but truncated at the N-terminus (VRLSSCVPVALMSA; listed as Homo sapiens)
Immunogenicity (T-cell proliferation, stimulation index) [2]: too truncated at the N-terminus compared to fsp2 (SEQ ID NO 5) to be immunogenic

PKCIMKEKKKSLVRLSSCV [p541, prior art peptide of mutTGFβR2]
Immunogenicity (Saeterdal, PNAS) [3]: immunogenic | Induction of T-cell responses in patients [3]: able to induce T-cell responses in some patients

RLSSCVPVA [p573, prior art peptide of mutTGFβR2]
Lysis of HCT116 [4]: able to lyse | Activation of specific CTLs in vitro ([5]; HLA-A2.1 restricted): capable of activating specific CTLs | Immunogenicity (FIG. 1 of Linnebacher et al.) [5]: immunogenic | Generation of CTL line and clones (CTL): able to generate a CTL line and several CTL clones | Immunogenicity (Saeterdal, Cancer Immunol Immunother) (CTL): immunogenic | Immunogenicity (FIG. 14 of EP1078000) (T-cells): not immunogenic

KCIMKEKKSLVRLSSCVPVALMSAMTTSSSQKN (listed as Homo sapiens) [fsp5]
Immunogenicity relative to fsp3 and fsp4 [1]: more immunogenic | Immunogenicity (T cell proliferation, stimulation index) [1]: immunogenic | Purity by UPLC after lyophilisation (stability) [6]: below 50% | Solubility: effect of water on crude DMSO solution (Peptide solubility; addition of even small amounts of water to crude DMSO solution): precipitation of the peptide | Solubility (Peptide solubility; crude peptide ~150 mg in approximately 4 ml 50% MeCN in water under gentle heating): no clear solution could be obtained

KCIMKEKKSLVRLSSCVPVALMSA (listed as Homo sapiens) [fsp1]
Immune response of Donor 3 [1]: showed an immune response | Immunogenicity relative to fsp3 and fsp4 [1]: more immunogenic | Immunogenicity (T cell proliferation, stimulation index) [1]: immunogenic

SLVRLSSCVPVALMSAMTTSSSQ [p538, prior art peptide of mutTGFβR2]
Immunogenicity (Saeterdal, PNAS) [3]: highly immunogenic | Recognition by patients having spontaneous MSI+ colon cancer [3, 7]: two of three | Recognition by patients with HNPCC [3, 7]: all three

AMTTSSSQKNITPAILTCC [p537, prior art peptide of mutTGFβR2]
Immunogenicity (Saeterdal, PNAS) [3]: not immunogenic

SPKCIMKEKKSLVRLSSCVPVA [P540, prior art peptide of mutTGFβR2]
Immunogenicity (Saeterdal, PNAS) [3]: immunogenic | Induction of T-cell responses in patients [3]: able to induce T-cell responses in some patients

SLVRLSSCV [p523, prior art peptide of mutTGFβR2]
Immunogenicity (FIG. 1 of Linnebacher et al.) [5]: not immunogenic | Immunogenicity (FIG. 14 of EP1078000) (T-cells): immunogenic
